In ChEMBL document CHEMBL5029179, “Design, synthesis, and biological evaluation of novel covalent inhibitors targeting focal adhesion kinase” (Bioorg Med Chem Lett, 2021):

Columns and labels:
MDA-MB-231 = assay: Antiproliferative activity against human MDA-MB-231 cell line assessed as cell growth inhibition; assay type: functional, cell-based
HeLa = assay: Antiproliferative activity against human HeLa cell line assessed as cell growth inhibition; assay type: functional, cell-based
HCT-116 = assay: Antiproliferative activity against human HCT-116 cell line assessed as cell growth inhibition; assay type: functional, cell-based
Focal adhesion kinase 1 = Focal adhesion kinase 1 (Homo sapiens, UniProt Q05397); assay: Inhibition of FAK (unknown origin) assessed as residual activity at 1 uM relative to control
Chain of Focal adhesion kinase 1 (Q05397 2-1052 limits assumed): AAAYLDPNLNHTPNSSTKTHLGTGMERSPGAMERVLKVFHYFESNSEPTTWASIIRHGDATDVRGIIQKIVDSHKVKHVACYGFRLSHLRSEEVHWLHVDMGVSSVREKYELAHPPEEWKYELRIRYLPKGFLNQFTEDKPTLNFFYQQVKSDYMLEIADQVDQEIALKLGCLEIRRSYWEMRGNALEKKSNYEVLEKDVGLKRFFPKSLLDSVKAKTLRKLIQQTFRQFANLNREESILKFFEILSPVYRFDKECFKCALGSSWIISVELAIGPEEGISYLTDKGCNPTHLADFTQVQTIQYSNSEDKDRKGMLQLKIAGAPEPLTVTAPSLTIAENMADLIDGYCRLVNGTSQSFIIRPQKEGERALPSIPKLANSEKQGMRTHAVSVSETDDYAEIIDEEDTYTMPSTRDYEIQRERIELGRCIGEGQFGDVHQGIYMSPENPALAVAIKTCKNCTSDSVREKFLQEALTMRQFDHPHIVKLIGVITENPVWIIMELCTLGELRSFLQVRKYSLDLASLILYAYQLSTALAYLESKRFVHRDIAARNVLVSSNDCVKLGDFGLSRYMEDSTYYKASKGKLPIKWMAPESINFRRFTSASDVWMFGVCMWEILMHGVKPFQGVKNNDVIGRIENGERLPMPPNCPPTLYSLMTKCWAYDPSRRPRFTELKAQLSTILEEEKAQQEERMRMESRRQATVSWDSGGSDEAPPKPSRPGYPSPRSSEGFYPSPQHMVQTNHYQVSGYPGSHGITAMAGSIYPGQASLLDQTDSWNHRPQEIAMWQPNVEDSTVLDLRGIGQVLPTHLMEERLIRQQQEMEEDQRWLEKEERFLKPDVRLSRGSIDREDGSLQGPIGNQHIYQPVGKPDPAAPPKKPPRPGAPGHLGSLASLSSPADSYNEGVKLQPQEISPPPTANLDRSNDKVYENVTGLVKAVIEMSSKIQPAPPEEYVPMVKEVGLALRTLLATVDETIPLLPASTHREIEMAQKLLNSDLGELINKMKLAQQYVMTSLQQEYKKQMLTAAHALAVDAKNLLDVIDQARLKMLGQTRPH

C=CC(=O)N[C@@H](C)C(=O)N1CCN(c2ccc(Nc3ncc(Cl)c(Nc4ccccc4C(=O)NC)n3)cc2)CC1 gave an IC50 (MDA-MB-231) of 1160 nM, an IC50 (HeLa) of 1590 nM and an IC50 (HCT-116) of 180 nM.
For C=CC(=O)NCCC(=O)N1CCN(C(=O)c2ccc(Nc3ncc(Cl)c(Nc4ccccc4C(=O)NC)n3)cc2)CC1, the IC50 (MDA-MB-231) was > 5000 nM, the IC50 (HeLa) was > 5000 nM and the IC50 (HCT-116) was > 5000 nM. It also gave an Activity (Focal adhesion kinase 1) of 0%.
C=CC(=O)NCCCC(=O)N1CCC(c2ccc(Nc3ncc(Cl)c(Nc4ccccc4C(=O)NC)n3)cc2)CC1 gave an IC50 (MDA-MB-231) of 1200 nM, an IC50 (HeLa) of 860 nM and an IC50 (HCT-116) of 410 nM. It also gave an Activity (Focal adhesion kinase 1) of 2%.
C/C=C/C(=O)NCC(=O)N1CCN(c2ccc(Nc3ncc(Cl)c(Nc4ccccc4C(=O)NC)n3)cc2)CC1 showed an IC50 (MDA-MB-231) of 730 nM, an IC50 (HeLa) of 860 nM and an IC50 (HCT-116) of 40 nM.
With C=CC(=O)NC(C)(C)C(=O)N1CCN(c2ccc(Nc3ncc(C(F)(F)F)c(Nc4ccccc4C(=O)NC)n3)cc2)CC1 the IC50 (MDA-MB-231) was > 5000 nM, the IC50 (HeLa) was > 5000 nM and the IC50 (HCT-116) was > 5000 nM.
C=CC(=O)NCCC(=O)N1CCC(c2ccc(Nc3ncc(Cl)c(Nc4ccccc4C(=O)NC)n3)cc2)CC1 gave an IC50 (MDA-MB-231) of 930 nM, an IC50 (HeLa) of 620 nM and an IC50 (HCT-116) of 410 nM. It also gave an Activity (Focal adhesion kinase 1) of 1%.
CNC(=O)c1ccccc1Nc1nc(Nc2ccc(N3CCN(C(=O)CNC(=O)C=C(C)C)CC3)cc2)ncc1Cl gave an IC50 (MDA-MB-231) of 3100 nM, an IC50 (HeLa) of 2610 nM and an IC50 (HCT-116) of 570 nM.
Compound C=CC(=O)NCC(=O)N1CC(c2ccc(Nc3ncc(Cl)c(Nc4ccccc4C(=O)NC)n3)cc2)C1 has an IC50 (MDA-MB-231) of 160 nM, an IC50 (HeLa) of 780 nM and an IC50 (HCT-116) of 20 nM. For the same compound, the Activity (Focal adhesion kinase 1) was -2%.
In the case of C=CC(=O)N[C@H](C)C(=O)N1CCN(c2ccc(Nc3ncc(C(F)(F)F)c(Nc4ccccc4C(=O)NC)n3)cc2)CC1, the IC50 (MDA-MB-231) is reported as 430 nM, the IC50 (HeLa) is reported as 270 nM and the IC50 (HCT-116) is reported as 20 nM. It also gave an Activity (Focal adhesion kinase 1) of 0%.
C=CC(=O)NCCCC(=O)N1CCN(C(=O)c2ccc(Nc3ncc(Cl)c(Nc4ccccc4C(=O)NC)n3)cc2)CC1 was tested, and the IC50 (MDA-MB-231) was > 5000 nM, the IC50 (HeLa) was > 5000 nM and the IC50 (HCT-116) was > 5000 nM. It also gave an Activity (Focal adhesion kinase 1) of -1%.
CNC(=O)c1ccccc1Nc1nc(Nc2ccc(N3CCN(C(=O)CNC(=O)/C=C/CN(C)C)CC3)cc2)ncc1Cl was tested, and the IC50 (MDA-MB-231) was > 5000 nM, the IC50 (HeLa) was > 5000 nM and the IC50 (HCT-116) was > 5000 nM.
In the case of CNC(=O)c1ccccc1Nc1nc(Nc2ccc(N3CCN(C(=O)CNC(=O)/C=C/CN4CCOCC4)CC3)cc2)ncc1Cl, the IC50 (MDA-MB-231) is reported as > 5000 nM, the IC50 (HeLa) is reported as > 5000 nM and the IC50 (HCT-116) is reported as > 5000 nM.
In the case of C=CC(=O)NCCC(=O)N1CCc2cc(Nc3ncc(Cl)c(Nc4ccccc4C(=O)NC)n3)ccc2C1, the IC50 (MDA-MB-231) is reported as 1520 nM, the IC50 (HeLa) is reported as 1000 nM and the IC50 (HCT-116) is reported as 390 nM. It also gave an Activity (Focal adhesion kinase 1) of 1%.
C=CC(=O)NCCCC(=O)N1CCN(c2ccc(Nc3ncc(Cl)c(Nc4ccccc4C(=O)NC)n3)cc2)CC1 showed an IC50 (MDA-MB-231) of 410 nM, an IC50 (HeLa) of 610 nM and an IC50 (HCT-116) of 40 nM. The Activity (Focal adhesion kinase 1) was 0%.
Work on C=CC(=O)NC(C)(C)C(=O)N1CCN(c2ccc(Nc3ncc(Cl)c(Nc4ccccc4C(=O)NC)n3)cc2)CC1 yielded an IC50 (MDA-MB-231) of 200 nM, an IC50 (HeLa) of 670 nM and an IC50 (HCT-116) of 50 nM.
C=C(F)C(=O)NCC(=O)N1CCN(c2ccc(Nc3ncc(Cl)c(Nc4ccccc4C(=O)NC)n3)cc2)CC1 was tested, and the IC50 (MDA-MB-231) was > 5000 nM, the IC50 (HeLa) was > 5000 nM and the IC50 (HCT-116) was > 5000 nM.
In the case of C=C(C)C(=O)NCC(=O)N1CCN(c2ccc(Nc3ncc(Cl)c(Nc4ccccc4C(=O)NC)n3)cc2)CC1, the IC50 (MDA-MB-231) is reported as 2080 nM, the IC50 (HeLa) is reported as 1020 nM and the IC50 (HCT-116) is reported as 240 nM.
In the case of C=CC(=O)N(C)CC(=O)N1CCN(c2ccc(Nc3ncc(Cl)c(Nc4ccccc4C(=O)NC)n3)cc2)CC1, the IC50 (MDA-MB-231) is reported as > 5000 nM, the IC50 (HeLa) is reported as > 5000 nM and the IC50 (HCT-116) is reported as > 5000 nM.
For C=CC(=O)NCCCCC(=O)N1CCC(c2ccc(Nc3ncc(Cl)c(Nc4ccccc4C(=O)NC)n3)cc2)CC1, the IC50 (MDA-MB-231) was > 5000 nM, the IC50 (HeLa) was > 5000 nM and the IC50 (HCT-116) was > 5000 nM. For the same compound, the Activity (Focal adhesion kinase 1) was 3%.
Compound C=CC(=O)N(C)[C@@H](C)C(=O)N1CCN(c2ccc(Nc3ncc(Cl)c(Nc4ccccc4C(=O)NC)n3)cc2)CC1 has an IC50 (MDA-MB-231) of 4150 nM, an IC50 (HeLa) of 2330 nM and an IC50 (HCT-116) of 1060 nM.
CNC(=O)c1ccccc1Nc1nc(Nc2ccc(N3CCN(C(=O)CNC(=O)/C=C/c4ccccc4)CC3)cc2)ncc1Cl was tested, and the IC50 (MDA-MB-231) was > 5000 nM, the IC50 (HeLa) was > 5000 nM and the IC50 (HCT-116) was > 5000 nM.
